The text below walks through data of patent US20200305435A1, “SYNERGISTIC COMBINATION OF BIOCIDES” (LONZA LLC, priority 2016, published 2020).

Common to all, as to test: Minimum inhibitory concentration, microtitre plate doubling dilutions
Common to all, as to format: cell-based

One experiment concerns Escherichia coli. As to conditions: biocide alone, visual growth after 24 hours at 37° C., read-out: MIC versus organism E.c. The procedure: (§1) Bacteria were grown to stationary phase (18 h) in nutrient broth (approximately 10^9 organisms per ml). A 0.1% (v/v) inoculum was used to seed fresh medium and 100 μl of this was added to each well of a microtitre plate, except for the first well which contained 200 μl. Using doubling dilutions, the concentration of each antimicrobial was varied in each well along the ordinate axis. The presence or absence of growth was determined by visual inspection after 24 hours incubation at 37° C.

The test system of a further experiment is Staphylococcus aureus. To be noted: biocide alone, visual growth after 24 hours at 37° C., read-out: MIC versus organism S.a. The procedure: as §1
The test system of the next experiment is Ps.a. To be noted: Pseudomonas aeruginosa; biocide alone; read-out: MIC versus organism Ps.a. The procedure:
as §1

The next experiment has as its system Aspergillus brasiliensis. To be noted: biocide alone, visual growth after 48 hours at 25° C., read-out: MIC versus organism A.b. The procedure: (§2) Fungi were grown on malt agar for 7 days at 25° C. to form a mycelial mat and the spore suspension harvested using 10 ml physiological saline (0.85% (w/v) NaCl). This was used as an inoculum as above. The presence or absence of growth was determined by visual inspection after 48 hours incubation at 25° C.

The next experiment deals with C. albicans. As to conditions: Candida albicans; biocide alone; read-out: MIC versus organism C.a. On the procedure:
as §2

What is called MIC is the least concentration at which growth counts as inhibited. Turning to `N=C(NCCCCCCNC(=N)NC(=N)Nc1ccc(Cl)cc1)NC(=N)Nc1ccc(Cl)cc1` [Spectradyne, Chlorhexidine gluconate], the MIC in the experiment with Escherichia coli turned out to be 2 µg/mL; in the experiment on Staphylococcus aureus, 1 µg/mL; in the experiment with Ps.a, 4 µg/mL; with Aspergillus brasiliensis, 62.5 µg/mL; with C. albicans it was 16 µg/mL.
